Test results reported in patent US20250375419A1, “NOVEL RAS INHIBITORS” (KHR Biotec GmbH, priority 2022, published 2025).

How the values were obtained:
Assay type in all cases: cell-based
[1] = system: T24; experiment: Soft agar colony formation assay, colonies stained with MTT; settings: Homo sapiens, T-24; T24, growth in soft agar, MTT absorbance 570 nm, 3 independent experiments
Method: (§1) Metabolic activity was quantified using Cell Proliferation Kit I (Roche, Basel, Switzerland). Cells were seeded in 96-well cell culture plates, using 5000 cells per well for NCI-H358 cells. After treatment, 10 μl of MTT solution was added and incubated for 2 h in CO2 incubator. Then 100 μl of solubilization buffer was added to each well and incubated overnight in CO2 incubator. Cell viability, assessed by the amount of metabolized MTT, was quantified by measuring absorbance at 570 nm.
(§2) MTT assay for the growth of different tumour cell lines with RAS mutations in soft agar with Tegaserode maleate.
(§3) NCI-H358, H358, H2122, ASPC-1, HCT-116, T24 and HT1080 cells were used for the soft agar colony formation assay. After the treatment with Tegaserode maleate, the colonies were stained with MTT and the value was quantified by measuring absorbance at 570 nm after solubilization. The results represent mean±SEM from 3 independent experiments.

[2] = system: NCI-H2122; experiment: as above; settings: Homo sapiens; NCI-H2122, growth in soft agar, MTT absorbance 570 nm, 3 independent experiments
Method: as §1, §2, §3

[3] = system: ASPC1; experiment: as above; settings: Homo sapiens; ASPC1, growth in soft agar, MTT absorbance 570 nm, 3 independent experiments
Method: as §1, §2, §3

[4] = system: HT1080; experiment: as above; settings: Homo sapiens, HT-1080; HT1080, growth in soft agar, MTT absorbance 570 nm, 3 independent experiments
Method: as §1, §2, §3

[5] = system: HCT-116; experiment: as above; settings: Homo sapiens; HCT-116, growth in soft agar, MTT absorbance 570 nm, 3 independent experiments
Method: as §1, §2, §3

[6] = system: NCI-H358; experiment: as above; settings: Homo sapiens; NCI-H358, growth in soft agar, MTT absorbance 570 nm, 3 independent experiments
Method: as §1, §2, §3

[7] = system: RAS protein of RASOpathie; experiment: RASOpathie-Model; MTT assay for cell viability in 96 well cell culture plate; settings: 48 h treatment
Method: FIG. 4: RASOpathie-Model of Tegaserode maleate; MTT assay for cell viability in 96 well cell culture plate
Cells were treated with Tegaserode maleate for 48 h and cell viability was evaluated by MTT assay. DMSO-treated cells were set as 1. The results shown are mean±SEM from 3 independent experiments.

[8] = system: BaF3 KRAS G12C/Y96D; experiment: MTT assay for cell viability in 96 well cell culture plate; settings: Mus musculus, 48 h treatment
Method: as §1
(§4) FIGS. 3a) und 3b): MTT assay for cell viability in 96 well cell culture plate Cells were treated with compounds for 48 h and cell viability was evaluated by MTT assay. The results shown are mean from 3 independent experiments. DMSO-treated cells were set as 1. The results shown are mean±SEM from 1-3 independent experiments.
(§5) G12C/Y96D mutation is normally seen in patients, who develop resistance to G12C inhibitor. Thus, patients, who are resistant to G12C inhibitors can still be treated with Tegaserode maleate.

[9] = system: BaF3 KRAS G12C; experiment: as above; settings: Mus musculus, 48 h treatment
Method: as §1, §4, §5

[10] = system: KRAS dependent cells; experiment: MTT assay for cell viability, KRAS dependent cells (FIG. 3a); settings: irrespective of the presence of mutation, 48 h
Method: as §4, §5

IC50 [1]: 11.3 µM
IC50 [2]: 3.37 µM
IC50 [3]: 4.76 µM
IC50 [4]: 2.43 µM
IC50 [5]: 3.12 µM
IC50 [6]: 5.39 µM
IC50 [8]: 2.86 µM
IC50 [9]: 10.2 µM
Compound: CCCCCNC(=N)N/N=C/c1c[nH]c2ccc(OC)cc12.O=C(O)/C=C\C(=O)O [Tegaserode maleate, 2-[(5-Methoxy-1H-indol-3-yl)methylene]-N-pentyl-hydrazinecarboximidamide maleate]
inhibition of RAS protein of RASOpathie (cell viability) [7]: inhibits RAS protein of RASOpathie
inhibition of KRAS dependent cells [10]: inhibits KRAS dependent cells irrespective of the presence of mutation
